# Assays:
# [1] = Ratio of drug metabolism in Lewis rat blood assessed as phosphate ester metabolite to parent drug at 2 mg/kg, po measured at 24 hrs by LC-MS/MS analysis; type: ADME, organism-based; details: in vivo
# [2] = tested on: Rattus norvegicus; test: Reduction in circulating lymphocytes in Lewis rat blood at 2 mg/kg, po measured at 24 hrs by hematology analyzer based analysis; type: functional; design: scale not given: the % may be the effect or the level left
# [3] = Half-life in Lewis rat at 2 mg/kg, po measured over 72 hrs by LC-MS/MS analysis; type: ADME, organism-based; details: in vivo
# [4] = tested on: Rattus norvegicus; test: Reduction in circulating lymphocytes in Lewis rat blood at 2 mg/kg, po measured at 4 hrs by hematology analyzer based analysis; type: functional; design: scale not given: the % may be the effect or the level left
# [5] = tested on: Rattus norvegicus; test: Drug metabolism in Lewis rat blood assessed as concentration of phosphate ester metabolite formation at 2 mg/kg, po measured at 4 hrs by LC-MS/MS analysis; details: in vivo
# [6] = tested on: Rattus norvegicus; test: Reduction in circulating lymphocytes in Lewis rat blood assessed as effective dose after oral dosing measured at 24 hrs by hematology analyzer based analysis; type: functional
# [7] = Drug metabolism in Lewis rat blood assessed as concentration of parent compound at 2 mg/kg, po measured at 24 hrs by LC-MS/MS analysis; type: ADME, organism-based; details: read-out: Ct
# [8] = Pulmonary toxicity in Lewis rat assessed as elevation of BAL protein level at 25 mg/kg by advia1800 chemistry analyzer; type: organism-based; details: in vivo
# [9] = Drug metabolism in Lewis rat blood assessed as concentration of parent compound at 2 mg/kg, po measured at 4 hrs by LC-MS/MS analysis; type: ADME, organism-based; details: read-out: Ct
# [10] = tested on: Mus musculus; test: Reduction in circulating lymphocytes in Balb/c mouse blood at 1 mg/kg, po measured at 4 hrs by hematology analyzer based analysis; type: functional; design: scale not given: the % may be the effect or the level left
# [11] = Drug metabolism in Balb/c mouse blood assessed as concentration of parent compound at 15 mg/kg, po measured at 4 hrs by LC-MS/MS analysis; type: ADME, organism-based; details: read-out: Ct
# [12] = Drug metabolism in Balb/c mouse blood assessed as concentration of phosphate ester metabolite formation at 15 mg/kg, po measured at 4 hrs by LC-MS/MS analysis; type: ADME, organism-based; details: in vivo
# [13] = Drug metabolism in Balb/c mouse blood assessed as concentration of phosphate ester metabolite formation at 15 mg/kg, po measured at 24 hrs by LC-MS/MS analysis; type: ADME, organism-based; details: in vivo
# [14] = Drug metabolism in Balb/c mouse blood assessed as concentration of phosphate ester metabolite formation at 1 mg/kg, po measured at 24 hrs by LC-MS/MS analysis; type: ADME, organism-based; details: in vivo
# [15] = Drug metabolism in Balb/c mouse blood assessed as concentration of parent compound at 1 mg/kg, po measured at 24 hrs by LC-MS/MS analysis; type: ADME, organism-based; details: Balb/c, blood, read-out: Ct
# [16] = Drug metabolism in Balb/c mouse blood assessed as concentration of parent compound at 1 mg/kg, po measured at 4 hrs by LC-MS/MS analysis; type: ADME, organism-based; details: Balb/c, blood, read-out: Ct
# [17] = Drug metabolism in Balb/c mouse blood assessed as concentration of phosphate ester metabolite formation at 1 mg/kg, po measured at 4 hrs by LC-MS/MS analysis; type: ADME, organism-based; details: in vivo, BLD = below limit of detection
# [18] = Drug metabolism in Balb/c mouse blood assessed as concentration of parent compound at 15 mg/kg, po measured at 24 hrs by LC-MS/MS analysis; type: ADME, organism-based; details: read-out: Ct
# [19] = tested on: Mus musculus; test: Reduction in circulating lymphocytes in Balb/c mouse blood at 15 mg/kg, po measured at 24 hrs by hematology analyzer based analysis; type: functional; design: scale not given: the % may be the effect or the level left
# [20] = Ratio of drug metabolism in Balb/c mouse blood assessed as phosphate ester metabolite to parent drug at 1 mg/kg, po measured at 24 hrs by LC-MS/MS analysis; type: ADME, organism-based; details: in vivo
# [21] = tested on: Mus musculus; test: Reduction in circulating lymphocytes in Balb/c mouse blood at 15 mg/kg, po measured at 4 hrs by hematology analyzer based analysis; type: functional; design: scale not given: the % may be the effect or the level left
# [22] = tested on: Mus musculus; test: Reduction in circulating lymphocytes in Balb/c mouse blood at 1 mg/kg, po measured at 24 hrs by hematology analyzer based analysis; type: functional; design: scale not given: the % may be the effect or the level left
# [23] = Ratio of drug metabolism in Balb/c mouse blood assessed as phosphate ester metabolite to parent drug at 15 mg/kg, po measured at 24 hrs by LC-MS/MS analysis; type: ADME, organism-based; details: in vivo
structure (smiles),measurement,setting,value
COc1ccc(CC[C@@H]2CCc3cc([C@H]4CC[C@](N)(CO)C4)ccc3C2)cc1,Ratio,[1],0.4
same,Activity,[2],81%
same,half-life,[3],11 h
same,Activity,[4],21%
same,Drug metabolism,[5],10 nM
same,ED50,[6],0.5 mg/kg
same,concentration at 24 h,[7],40 nM
same,Activity,[8],26 mg/dL
same,concentration at 4 h,[9],190 nM
N[C@]1(CO)CC[C@H](c2ccc3c(c2)CC[C@@H](CCc2ccccc2)C3)C1,Activity,[10],10%
same,Ratio,[1],6
same,concentration at 4 h,[11],150 nM
same,Drug metabolism,[12],110 nM
same,Drug metabolism,[13],360 nM
same,Drug metabolism,[14],34 nM
same,concentration at 24 h,[15],12 nM
same,concentration at 4 h,[16],13 nM
same,Activity,[2],82%
same,Drug metabolism,[17],Bld
same,concentration at 24 h,[18],160 nM
same,half-life,[3],> 75 h
same,Activity,[4],43%
same,Drug metabolism,[5],150 nM
same,Activity,[19],88%
same,Ratio,[20],2.8
same,concentration at 24 h,[7],140 nM
same,Activity,[21],81%
same,Activity,[22],52%
same,concentration at 4 h,[9],130 nM
same,Ratio,[23],2.3
